This is an account of results in patent publication US20110263650A1 (priority 2007, published 2011).

The test system of series [1] is SW-480 human colon adenocarcinoma (ATCC CCL-228). Nature of the series: Growth inhibition assay (MTT), SW-480. It counts as cell-based. To be noted: for IC50: SW480, 120 h, read-out: IC50 SW-480; for Activity in SW-480 compared with tubulysin D, in words: colon cancer cell line SW-480.
Series [2] concerns KB-3-1 human cervix carcinoma (DSMZ ACC 158). Put plainly: Growth inhibition assay (MTT), KB-3-1. It counts as cell-based. To be noted: KB 3-1, 120 h, read-out: IC50 KB-3-1.
Series [3] concerns L929 mouse fibroblasts (DSMZ ACC 2). Nature of the series: Growth inhibition assay (MTT), L929. To be noted: for IC50: Mus musculus; for Cytotoxicity / activity in words: Tables 1 and 2, cell line not given.
Setting [4] is: L929, 120 h, read-out: IC50 L929.

Molecules are shown by their SMILES. Converted amounts (≈) assume the structure as drawn. Where two headings read alike, the source gives them in different places.

For the compound `CC[C@H](C)[C@H](NC(=O)[C@H]1CCCCN1C)C(=O)N(C)[C@H](C[C@@H](OC(C)=O)c1nc(C(=O)N[C@@H](Cc2ccccc2)C[C@H](C)C(=O)O)cs1)C(C)C` (stereo in doubt) [Analogue 10, 4-({2-[1-Acetoxy-4-methyl-3-(methyl-{3-methyl-2-[(1-methylpiperidine-2-carbonyl)-amino]-pentanoyl}-amino)-pentyl]-thiazole-4-carbonyl}-amino)-2-methyl-5-phenyl-pentanoic acid], the IC50 worked out at 0.016 ng/mL (≈ 0.022 nM) in series [1] (Homo sapiens), 0.13 ng/mL (≈ 0.179 nM) in series [2] (Homo sapiens) and 0.23 ng/mL (≈ 0.316 nM) in series [3] (setting [4]). The “Activity in SW-480 compared with tubulysin D, in words” value in series [1] is “more active than tubulysin D”. Besides, the “Fold less active than tubulysin D” value in series [3] (cytotoxicity relative to tubulysin D) is reported as 4 fold.

Consider `CC[C@H](C)[C@H](NC(=O)[C@H]1CCCCN1C)C(=O)N(COC(=O)CC(C)C)[C@H](C[C@@H](OC(C)=O)c1nc(C(=O)O)cs1)C(C)C` [Analogue 5, 2-[1-acetoxy-4-methyl-3-((3-methyl-butyryloxymethyl)-{3-methyl-2-[(1-methyl-piperidine-2-carbonyl)-amino]-pentanoyl}-amino)-pentyl]-thiazole-4-carboxylic acid], for which the IC50 came out at 0.35 ng/mL (≈ 0.548 nM) in series [1] (Homo sapiens), 1.5 ng/mL (≈ 2.35 nM) in series [2] (Homo sapiens) and 2.2 ng/mL (≈ 3.44 nM) in series [3] (setting [4]). The “Cytotoxicity / activity in words” value in series [3] is reported as “maintained good activity”.

For the compound `CC[C@H](C)[C@H](NC(=O)[C@H]1CCCCN1C)C(=O)N(COC(=O)CC(C)C)[C@H](C[C@@H](OC(C)=O)c1nc(C(=O)NCCc2ccccc2)cs1)C(C)C` [Analogue 2, 3-methyl-butyric acid ({1-[2-acetoxy-2-(4-phenethylcarbamoylthiazol-2-yl)-ethyl]-2-methyl-propyl}-{3-methyl-2-[(1-methyl-piperidine-2-carbonyl)-amino]-pentanoyl}-amino)-methyl ester], the IC50 is 0.3 ng/mL (≈ 0.404 nM) in series [1] (Homo sapiens), 0.25 ng/mL (≈ 0.337 nM) in series [2] (Homo sapiens) and 0.24 ng/mL (≈ 0.323 nM) in series [3] (setting [4]).

Regarding `CC[C@H](C)[C@H](N=[N+]=[N-])C(=O)N(COC(=O)CC(C)C)[C@H](C[C@@H](OC(C)=O)c1nc(C(=O)N[C@@H](Cc2ccccc2)C[C@H](C)C(=O)O)cs1)C(C)C` [Analogue 8, 4-[(2-{1-acetoxy-3-[(2-azido-3-metlzyl-pentanoyl)-(3-methylbutyryloxymethyl)-amino]-4-methyl-pentyl}-thiazole-4-carbonyl)-amino]-2-methyl-5-phenyl-pentanoic acid], the IC50 in series [1] (Homo sapiens) was 8.8 ng/mL (≈ 12.1 nM); in series [2] (Homo sapiens), 40 ng/mL (≈ 54.9 nM); in series [3] (setting [4]), 45 ng/mL (≈ 61.7 nM). For the same compound, the “Cytotoxicity / activity in words” value in series [3] was “drastic decrease in activity”.

As for `CC[C@H](C)[C@H](NC(=O)[C@H]1CCCCN1C)C(=O)N(COC(=O)CC(C)C)[C@H](C[C@@H](OC(C)=O)c1nc(C(=O)NCCCC(=O)O)cs1)C(C)C` [Analogue 3, 3-Methyl-butyric acid ((1-{2-acetoxy-2-[4-(3-carboxy-propylcarbamoyl)-thiazol-2-yl]-ethyl)-2-methyl-propyl)-{3-methyl-2-[(1-methyl-piperidine-2-carbonyl)-amino]-pentanoyl}-amino)-methyl ester], the IC50 amounted to 0.91 ng/mL (≈ 1.26 nM) in series [1] (Homo sapiens), 1.8 ng/mL (≈ 2.49 nM) in series [2] (Homo sapiens) and 3.5 ng/mL (≈ 4.83 nM) in series [3] (setting [4]).

For the compound `CC[C@H](C)[C@H](NC(=O)CN(C)C)C(=O)N(COC(=O)CC(C)C)[C@H](C[C@@H](OC(C)=O)c1nc(C(=O)N[C@@H](Cc2ccccc2)C[C@H](C)C(=O)O)cs1)C(C)C` [Analogue 6, 4-[(2-{1-acetoxy-3-[[2-(2-dimethylamino-cetylamino)-3-methylpentanoyl]-(3-methyl-butyryloxymethyl)-amino]-4-methyl-pentyl}-thiazole-4-carbonyl)-amino]-2-methyl-5-phenyl-pentanoic acid], the IC50 in series [1] (Homo sapiens) was 0.01 ng/mL (≈ 0.0127 nM); in series [2] (Homo sapiens), 0.029 ng/mL (≈ 0.0368 nM); in series [3] (setting [4]), 0.04 ng/mL (≈ 0.0508 nM). In addition, the “Activity in SW-480 compared with tubulysin D, in words” value in series [1] is listed as “more active than tubulysin D”. Further, the “Cytotoxicity / activity in words” value in series [3] was “essentially equipotent with tubulysin D”.

Turning to `CC[C@H](C)[C@H](NC(C)=O)C(=O)N(COC(=O)CC(C)C)[C@H](C[C@@H](OC(C)=O)c1nc(C(=O)N[C@@H](Cc2ccccc2)C[C@H](C)C(=O)O)cs1)C(C)C` [Analogue 7, 4-[(2-{1-acetoxy-3-[(2-acetylamino-3-methyl-pentanoyl)-(3-methyl-butyryloxymethyl)-amino]-4-methyl-pentyl}-thiazole-4-carbonyl)-amino]-2-methyl-5-phenyl-pentanoic acid], the results for the IC50 in series [1] (Homo sapiens), in series [2] (Homo sapiens) and in series [3] (setting [4]) were 15 ng/mL (≈ 20.1 nM), 80 ng/mL (≈ 107 nM) and 120 ng/mL (≈ 161 nM), respectively. Further, the “Cytotoxicity / activity in words” value in series [3] is on record as “drastic decrease in activity”.

Regarding `CC[C@H](C)[C@H](NC(=O)[C@H]1CCCCN1C)C(=O)N(COC(=O)CC(C)C)[C@H](C[C@@H](OC(C)=O)c1nc(C(=O)N[C@@H](Cc2ccccc2)C[C@H](C)C(=O)O)cs1)C(C)C` [Analogue 1, Tubulysin D, reference compound], the IC50 stood at 0.022 ng/mL (≈ 0.0266 nM) in series [1] (human colon adenocarcinoma, MTT after 5 days); 0.07 ng/mL (≈ 0.0845 nM) in series [2] (human cervix carcinoma, MTT after 5 days); 0.056 ng/mL (≈ 0.0676 nM) in series [3] (setting [4]).

`CC[C@H](C)[C@H](NC(=O)[C@H]1CCCCN1C)C(=O)N(COC(=O)CC(C)C)[C@H](C[C@@H](OC(C)=O)c1nc(C(=O)NC)cs1)C(C)C` [Analogue 4, 3-methyl-butyric acid ({1-[2-acetoxy-2-(4-methylcarbamoyl-thiazol-2-yl) -ethyl]-2-methyl-propyl}-{3-methyl-2-[(1-methyl-piperidine-2-carbonyl)-amino]pentanoyl}-amino)-methyl ester]: the IC50 in series [1] (Homo sapiens) is 0.35 ng/mL (≈ 0.537 nM); in series [2] (Homo sapiens), 0.22 ng/mL (≈ 0.337 nM); in series [3] (setting [4]) it was 0.3 ng/mL (≈ 0.46 nM). In addition, the “Cytotoxicity / activity in words” value in series [3] is “maintained good activity”.

As to `CC[C@H](C)[C@H](NC(=O)[C@H]1CCCCN1C)C(=O)N(C)[C@H](C[C@@H](OC(C)=O)c1nc(C(=O)NC)cs1)C(C)C` (stereo in doubt) [Analogue 11, acetic acid 4-methyl-1-(4-methylcarbamoyl-thiazol-2-yl)-3-(methyl-{3-methyl-2-[(1-methyl-piperidine-2-carbonyl)-amino]-pentanoyl}-amino)-pentyl ester], the IC50 was found to be 0.5 ng/mL (≈ 0.906 nM) in series [1] (Homo sapiens); 1.2 ng/mL (≈ 2.17 nM) in series [2] (Homo sapiens); 1.7 ng/mL (≈ 3.08 nM) in series [3] (setting [4]); 2 ng/mL (≈ 3.62 nM) in series [3] (L929, read-out: Cytotoxicity stated in text).
